Reference: patent publication US5026858A, “Piperidine derivative” (Walton S.A., priority 1976, dated 1991)
Counter-ions that a name gives are not always drawn. Like-named read-outs stand apart in the source and are kept apart here.

What was measured:
[1] = biological target: T1, [3H]haloperidol binding, rat limbic forebrain membranes (Rattus norvegicus, UniProt P61169); assay: displacement of [3H]haloperidol from rat limbic forebrain membranes; conditions: Table 1, read-out: Displacement [3H]Haloperidol limbic: approximate KI
T1 construct: striatal and limbic forebrain membranes; from tissue; host or cells: rat limbic forebrain membranes
Description: (§1) ^(f) Approximate KI (nM) for displacement of [3Hhaloperidol from rat
(§2) striatal and limbic forebrain membranes.

[2] = tested on: apomorphineinduced gnawing behaviour; assay: inhibition of apomorphine-induced gnawing behaviour in the rat (oral); type: in vivo
Description: | ^(b) Approximate oral ED50 value for inhibition of | apomorphineinduced gnawing behaviour in the rat (mg kg^-1) and | ^(b) Approximate oral ED50 value for inhibition of | apomorphineinduced gnawing behaviour in the rat (mg kg^-1) and […]

[3] = tested on: apomorphineinduced vomiting; assay: inhibition of apomorphine-induced vomiting in the dog (oral); type: in vivo; conditions: Canis lupus familiaris
Description: | ^(b) Approximate oral ED50 value for inhibition of | apomorphineinduced gnawing behaviour in the rat (mg kg^-1) and | vomiting in the dog (μg kg^-1) | ^(b) Approximate oral ED50 value for inhibition of | apomorphineinduced gnawing behaviour in the rat (mg kg^-1) and | vomiting in the dog (μg kg^-1)

[4] = biological target: T2, [3H]haloperidol binding, rat striatal membranes (Rattus norvegicus, UniProt P61169); assay: displacement of [3H]haloperidol from rat striatal membranes; conditions: Table 1, read-out: Displacement [3H]Haloperidol striatum: approximate KI
T2 construct: striatal and limbic forebrain membranes; from tissue; host or cells: rat striatal membranes
Description: as §1, §2

[5] = biological target: T3, dopamine sensitive adenylate cyclase of rat straitum (Rattus norvegicus, UniProt P18901); assay: inhibition of dopamine sensitive adenylate cyclase of rat striatum; type: biochemical
T3 construct: adenylate cyclase of rat straitum; from tissue; host or cells: rat striatum

[6] = approximate ED50, Table 2, read-out: Antiapomorphine rat: approximate oral ED50 for inhibition of apomorphine-induced gnawing
[7] = approximate ED50, Table 2, read-out: Antiapomorphine dog: approximate oral ED50 for inhibition of apomorphine-induced vomiting
[8] = rat striatum, Table 1, read-out: Dopamine sensitive aden-cyclase: approximate KI
[9] = approximate ED50, Table 1, read-out: Anti-apomorphine rat: approximate oral ED50 for inhibition of apomorphine-induced gnawing
[10] = approximate ED50, Table 1, read-out: Anti-apomorphine dog: approximate oral ED50 for inhibition of apomorphine-induced vomiting

T2 sequence (P61169 whole entry): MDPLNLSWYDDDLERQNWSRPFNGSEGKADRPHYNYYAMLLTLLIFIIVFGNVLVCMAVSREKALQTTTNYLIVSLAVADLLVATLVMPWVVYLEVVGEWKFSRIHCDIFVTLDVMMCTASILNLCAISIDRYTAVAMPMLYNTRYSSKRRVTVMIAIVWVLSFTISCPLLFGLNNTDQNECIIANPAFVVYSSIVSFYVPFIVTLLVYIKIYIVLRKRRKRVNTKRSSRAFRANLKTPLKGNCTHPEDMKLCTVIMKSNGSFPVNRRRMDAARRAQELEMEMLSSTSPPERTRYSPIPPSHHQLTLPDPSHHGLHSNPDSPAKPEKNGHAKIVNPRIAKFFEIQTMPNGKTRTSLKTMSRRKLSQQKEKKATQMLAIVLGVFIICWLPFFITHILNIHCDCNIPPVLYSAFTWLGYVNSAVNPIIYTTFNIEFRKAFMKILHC
T1 sequence (P61169 whole entry): as above
T3 sequence (P18901 whole entry): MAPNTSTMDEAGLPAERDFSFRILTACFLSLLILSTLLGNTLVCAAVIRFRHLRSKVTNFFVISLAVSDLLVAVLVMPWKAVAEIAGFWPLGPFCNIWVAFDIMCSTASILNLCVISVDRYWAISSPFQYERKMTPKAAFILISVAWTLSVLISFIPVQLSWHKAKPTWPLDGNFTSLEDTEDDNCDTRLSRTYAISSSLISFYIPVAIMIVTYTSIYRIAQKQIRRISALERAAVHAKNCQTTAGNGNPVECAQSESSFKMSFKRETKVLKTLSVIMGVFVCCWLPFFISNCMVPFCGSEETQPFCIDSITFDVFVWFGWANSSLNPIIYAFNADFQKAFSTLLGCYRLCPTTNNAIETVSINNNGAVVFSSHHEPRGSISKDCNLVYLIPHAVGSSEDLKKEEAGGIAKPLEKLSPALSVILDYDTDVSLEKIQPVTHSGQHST

Row | Structure (SMILES) | ED50 [2, 6] [mg/kg] | ED50 [3, 7] [mg/kg] | ED50 [2, 9] [mg/kg] | ED50 [3, 10] [mg/kg] | other results
1 | COc1cc(N)c(Cl)cc1C(=O)NC1CCN(Cc2ccccc2)CC1 [Clebopride hydrochloride, reference compound] | 2.5 | 0.04 |  |  | Ki [1]: 5 nM; Ki [4]: 25 nM; Ki [5, 8]: 5 nM
2 | CCN(CC)CCNC(=O)c1cc(Cl)c(N)cc1OC [Metoclopramide, reference compound] |  |  | 13.6 | 0.45 | Ki [5]: 60 nM
3 | COc1cc(N)c([N+](=O)[O-])cc1C(=O)NC1CCN(Cc2ccc(C)cc2)CC1 [N-(1-p-methylbenzylpiperid-4-yl)-2-methoxy-4-amino-5-nitrobenzamide] |  |  |  | < 0.05 | 
4 | CCOc1cc(N)c([N+](=O)[O-])cc1C(=O)NC1CCN(Cc2ccccc2)CC1 [EtO, NH2, NO2, H, phenyl, H, H, H, --, N-(1-benzylpiperid-4-yl)-2-ethoxy-4-amino-5-nitrobenzamide] |  |  |  | < 0.05 | 
5 | COc1cc(N)c([N+](=O)[O-])cc1C(=O)NC1CCN(Cc2ccc(Cl)cc2)CC1 [N-(1-p-chlorobenzylpiperid-4-yl)-2-methoxy-4-amino-5-nitrobenzamide] |  |  |  | < 0.05 | 
6 | CCOc1cc(N)c([N+](=O)[O-])cc1C(=O)NC1CCN(CC2=CCC=CC2)CC1 [compound 4, N-(1-cyclohexa-1',4'-dienylmethylpiperid-4-yl)-2-ethoxy-4-amino-5-nitrobenzamide] | 50 | < 0.05 |  |  | 
7 | CCOc1cc(N)c([N+](=O)[O-])cc1C(=O)NC1CCN(CC2=CCC(C)=CC2)CC1 [compound 5, N-[1-(4-methylcyclohexa-1,4-dienyl)methylpiperid-4-yl]-2-ethoxy-4-amino-5-nitrobenzamide] | 40 | < 0.05 |  |  | 
8 | COc1cc(N)c([N+](=O)[O-])cc1C(=O)NC1CCN(Cc2ccccc2)CC1 [MeO, NH2, NO2, H, phenyl, H, H, H, --, N-(1-Benzylpiperid-4-yl)-2-methoxy-4-amino-5-nitrobenzamide] |  |  | 140 | < 0.05 | Ki [1]: 1 nM; Ki [4]: 20 nM; Ki [5, 8]: 5 nM
9 | CCN1CCCC1CNC(=O)c1cc(S(N)(=O)=O)ccc1OC (stereo not drawn) [Sulpiride, reference compound] |  |  | > 800 | 0.141 | 
10 | COc1cc(N)c([N+](=O)[O-])cc1C(=O)NC1CCN(CC2=CCC(C)=CC2)CC1 [compound 6, N-[1-(4-methylcyclohexa-1,4-dienyl)methylpiperid-4-yl]-2-methoxy-4-amino-5-nitrobenzamide] | 35 | < 0.05 |  |  | 
11 | COc1cc(N)c([N+](=O)[O-])cc1C(=O)NC1CCN(CC2=CCC=CC2)CC1 [compound 2, N-(1-Cyclohexa-1',4'-dienylmethylpiperid-4-yl)-2-methoxy-4-amino-5-nitrobenzamide] | 60 | < 0.05 |  |  | 
12 | COc1cc(N)c([N+](=O)[O-])cc1C(=O)NC1CCN(CCc2ccccc2)CC1 [MeO, NH2, NO2, H, phenyl, H, H, H, CH2, N-(1-phenethylpiperid-4-yl)-2-methoxy-4-amino-5-nitrobenzamide] |  |  | 800 | > 5 | Ki [1]: 1 nM; Ki [4]: 10 nM; Ki [5, 8]: 1 nM
13 | COc1cc(N)c([N+](=O)[O-])cc1C(=O)NC1CCN(CCC2=CCC=CC2)CC1 [compound 3, N-[1-(2-cyclohexa-1',4'-dienylethyl)piperid-4-yl]-2-methoxy-4-amino-5-nitrobenzamide] | > 300 | > 0.5 |  |  | 
